Broadly, the Ki is a measure of affinity in units of concentration, obtained from inhibition or displacement.

This is an account of results in US6765003B1, “3-Arylsulfonyl-2 (substituted methyl) propanoic acid derivatives as matrix metalloproteinase inhibitors” (Pharmacia Italia, SpA, priority 1999, dated 2004).

Where a name gives a salt, the structure may show the parent alone. Read-outs that look alike come from different tables or passages of the source.

In assay [1] the target is T1, Human gelatinase-A (MMP-2) (Homo sapiens, UniProt P08253).
T1 sequence (P08253 110-660): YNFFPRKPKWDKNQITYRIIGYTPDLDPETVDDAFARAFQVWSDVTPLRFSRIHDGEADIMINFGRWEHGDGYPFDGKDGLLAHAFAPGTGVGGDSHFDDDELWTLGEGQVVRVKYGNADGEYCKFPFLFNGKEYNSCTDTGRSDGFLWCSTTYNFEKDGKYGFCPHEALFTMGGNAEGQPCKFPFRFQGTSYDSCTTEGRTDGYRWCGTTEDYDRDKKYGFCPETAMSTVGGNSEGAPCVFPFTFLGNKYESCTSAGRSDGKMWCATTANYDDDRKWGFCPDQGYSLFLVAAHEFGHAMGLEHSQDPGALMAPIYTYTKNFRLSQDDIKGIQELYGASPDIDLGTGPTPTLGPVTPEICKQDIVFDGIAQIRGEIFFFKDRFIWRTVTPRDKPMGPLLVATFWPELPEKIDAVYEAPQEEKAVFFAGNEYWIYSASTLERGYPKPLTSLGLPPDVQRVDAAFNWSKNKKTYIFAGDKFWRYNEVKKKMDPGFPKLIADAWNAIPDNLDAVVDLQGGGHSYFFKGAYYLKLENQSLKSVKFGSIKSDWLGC
Briefly: MMP inhibition, internal fluorescence quenching method (MCA peptide substrate). It counts as biochemical. On the procedure: (§1) The inhibitory activity of the compounds of the present invention was evaluated in vitro against one or more of the MMP enzymes (gelatinases, collagenases, stromelysins) using the internal fluorescence quenching method. The assay method is based on the hydrolysis of the MMP substrate, MCA-Pro-Leu-Gly-Leu-DPA-Ala—Arg-NH2 at 37° C. (see Knight, C. G. et al., FEBS Lett. 296:263-266, 1992). The enzymes cleave at the Gly-Leu bond removing the internally quenching DPA group. The release of the highly fluorescent peptide MCA-Pro-Leu was monitored with a LS50 Perkin Elmer fluorimeter equipped with a Peltier-thermostated cell holder using an excitation wavelength of 326 nm and an emission wavelenght of 398 nm. Slis were set at 14/14. Proper determination of steady-state rates of substrate cleavage required a preincubation at 37° C. of 15 minutes to allow for complete equilibration of the enzyme-inhibitor complex. […] Rates of substrate hydrolysis, expressed as fluorescence arbitrary units per minute, were calculated by least-square analysis of the steady-state linear progression curves. The steady-state rates were fitted to the Michaelis equation describing competitive inhibition; in particular, Ki,app were determined by fining the data to the tight-binding equation of Morrison (Biochem. Biophys. Acta, 185:269-286, 1969) by non-linear methods.
(§2) Human gelatinase-A (MMP-2) was obtained as penzyme (72 kDa) and was activated with 1 mM 4-aminophenylmercuric acetate for 30 min at 37° C. immediately prior to use. The inhibitor was diluted into the assay from a stock solution in 100% DMSO, and controls substituted an equal volume of DMSO so that the final DMSO concentration from inhibitor and substrate dilution in all assays was 1%. The concentration of MMP-2 was 19.2 picoM. For compounds of formula (I) where X is —OH, the assay buffer was 50 mM Tris/HCl pH 6.5 containing 150 mM NaCl, 10 mM CaCl2, 0.01 mM ZnCl2 and 0.05% Brij35 (Protocol A). Other conditions were as stated above.
The compounds of formula (I) where X is —NHOH were tested against MMP-2 and MMP-1 under the conditions stated above, but the assay solution was buffered at pH 7.4 (Protocol B).

Assay [2] addresses T2, Human fibroblast collagenase (MMP-1) (Homo sapiens, UniProt P03956).
T2 sequence (P03956 101-269): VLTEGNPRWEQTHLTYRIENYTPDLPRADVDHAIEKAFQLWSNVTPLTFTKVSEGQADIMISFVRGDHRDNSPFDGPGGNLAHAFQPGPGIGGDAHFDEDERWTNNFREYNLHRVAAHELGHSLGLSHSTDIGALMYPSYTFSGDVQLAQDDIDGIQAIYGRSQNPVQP
Described as above. It counts as biochemical. On the procedure: as §1, §2
Assay conditions were the same as above, but enzyme concentration was 200 picoM.

Setting [3] is: Protocol A: Tris/HCl pH 6.5, 37° C., MMP-2 19.2 picoM, substrate 3 μM, carboxylic acids, read-out: MMP-2 Ki.
Setting [4] is: Protocol A: pH 6.5, 37° C., enzyme 200 picoM, substrate 3 μM, carboxylic acids, read-out: MMP-1 Ki.
Setting [5] is: Protocol B: pH 7.4, 37° C., hydroxamic acids (X is —NHOH), read-out: MMP-2 Ki (picoM).
Where [6] appears, read: Protocol B: pH 7.4, 37° C., hydroxamic acids (X is —NHOH), read-out: MMP-1 Ki (picoM).

`Cc1nnc(SCC(CS(=O)(=O)c2ccc(-c3ccc(Cl)cc3)cc2)C(=O)O)s1` (stereo not drawn) [Example 36, 3-[(4′-chloro[1,1′-biphenyl]-4-yl)sulfonyl]-2-[[(S-methyl-1,3,4-thiadiazol-2-yl)sulfanyl]methyl]propanoic acid.]: the inhibition constant Ki in assay [1] (setting [3]) was determined as 33.4 nM.

Turning to `O=C(O)C(CSc1nc2ccccc2[nH]1)CS(=O)(=O)c1ccc(-c2ccc(Cl)cc2)cc1` (stereo not drawn) [Example 37, 3-[(4′-chloro[1,1′-biphenyl]-4-yl)sulfonyl]-2-[(1H-benzimidazol-2-yl-sulfanyl)methyl]-propanoic acid], the Ki in assay [1] (setting [3]) is 18.2 nM.

As to `O=C(Nc1ccc(S(=O)(=O)CC(CSc2cccs2)C(=O)O)cc1)c1ccccc1` (stereo not drawn) [Example 14, 3-[[4-(Benzoylamino)phenyl]sulfonyl]-2-[(2-thienylsulfanyl)methyl]propanoic acid], in assay [1] (setting [3]), the Ki turned out to be 8 nM.

Take `N#Cc1ccc(-c2ccc(S(=O)(=O)CC(CSc3ccccc3)C(=O)O)cc2)cc1` (stereo not drawn) [Example 19, 3-[(4′-cyano[1,1′-biphenyl]-4-yl)sulfonyl]-2-[(phenylsulfanyl)methyl]propanoic acid]: in assay [1] (setting [3]), the Ki stood at 17 nM.

Consider `CN1C(=O)N(CC(CS(=O)(=O)c2ccc(-c3ccc(Cl)cc3)cc2)C(=O)O)C(=O)C1(C)C` (racemic) [Example 5, 3-[(4′-chloro[1,1′-biphenyl]-4-yl)sulfonyl]-2-[(3,4,4-trimethyl-2,5-dioxo-1-imidazolidinyl)methyl]propanoic acid], for which the inhibition constant Ki in assay [1] (setting [3]) is 5.5 nM; in assay [2] (setting [4]) it was over 2000 nM.

On to `CN1C(=O)N(CC(CS(=O)(=O)c2ccc(-c3ccc(Cl)cc3)cc2)C(=O)O)C(=O)C1(C)C` (single isomer, unassigned) [6, Isomer 2], for which the Ki in assay [1] (setting [3]) was 50 nM.

`N#Cc1ccc(C(=O)Nc2ccc(S(=O)(=O)CC(COc3ccccc3)C(=O)O)cc2)cc1` (stereo not drawn) [Example 35, 3-[[4-[(4-cyanobenzoyl)amino]phenyl]sulfonyl]-2-(phenoxymethyl)propanoic acid]: the Ki came to 4.8 nM in assay [1] (setting [3]) and 67500 nM in assay [2] (setting [4]).

Regarding `CN1C(=O)N(CC(CS(=O)(=O)c2ccc(-c3ccc(Cl)cc3)cc2)C(=O)NO)C(=O)C1(C)C` (stereo not drawn) [Example 8, 3-[(4′-chloro[1,1′-biphenyl]-4-yl)sulfonyl]-N-hydroxy-2-[(3,4,4-trimethyl-2,5-dioxo-1-imidazolidinyl)methyl]propanamide], the Ki worked out at 0.107 nM in assay [1] (setting [5]) and 26.8 nM in assay [2] (setting [6]).

Take `N#Cc1ccc(-c2ccc(S(=O)(=O)CC(COc3ccccc3)C(=O)O)cc2)cc1` (stereo not drawn) [Example 29, 3-[(4′-cyano[1,1′-biphenyl]-4-yl)sulfonyl]-2-(phenoxymethyl)propanoic acid, sodium salt]: the Ki in assay [1] (setting [3]) stood at 21.5 nM.

Turning to `O=C(O)C(COc1ccccc1CO)CS(=O)(=O)c1ccc(-c2ccc(Cl)cc2)cc1` (stereo not drawn) [Example 33, 3-[(4′-chloro[1,1′-biphenyl]-4-yl)sulfonyl]-2-[[2-(hydroxymethyl)phenoxy]-methyl]propanoic acid], in assay [1] (setting [3]), the inhibition constant Ki worked out at 15 nM.

Turning to `O=C(Nc1ccc(S(=O)(=O)CC(CSc2ccccc2)C(=O)O)cc1)c1ccc(Cl)cc1` (stereo not drawn) [Example 21, 3-[[4-[(4-chlorobenzoyl)amino]phenyl]sulfonyl]-2-[(phenylsulfanyl)methyl]-propanoic acid], the Ki in assay [1] (setting [3]) was found to be 1.4 nM; in assay [2] (setting [4]), 50600 nM.

In the case of `O=C(O)C(COc1ccccc1)CS(=O)(=O)c1ccc(-c2ccc(Cl)cc2)cc1` (stereo not drawn) [Example 17, 3-[(4′-Chloro[1,1′-biphenyl]-4-yl)sulfonyl]-2-(phenoxymethyl)propanoic acid, sodium salt], the inhibition constant Ki came to 9.2 nM in assay [1] (setting [3]) and 14700 nM in assay [2] (setting [4]).

In the case of `CC(=O)Nc1ccc(OCC(CS(=O)(=O)c2ccc(-c3ccc(Cl)cc3)cc2)C(=O)O)cc1` (stereo not drawn) [Example 30, 3-[(4′-chloro[1,1′-biphenyl]-4-yl)sulfonyl]-2-[(4-acetylaminophenoxy)methyl]propanoic acid], the figures for the Ki in assay [1] (setting [3]) and in assay [2] (setting [4]) were 46 nM and 19600 nM, respectively.

In the case of `CCCCN1C(=O)CN(CC(CS(=O)(=O)c2ccc(-c3ccc(Cl)cc3)cc2)C(=O)O)C1=O` (stereo not drawn) [Example 18, 3-[(4′-chloro[1,1′-biphenyl]-4-yl)sulfonyl]-2-[(3-butyl-2,4-dioxo-1-imidazolidinyl)methyl]propanoic acid], the Ki in assay [1] (setting [3]) was 7.8 nM.

With `O=C(O)C(CSc1ccccn1)CS(=O)(=O)c1ccc(-c2ccc(Cl)cc2)cc1` (stereo not drawn) [Example 20, 3-[(4′-chloro[1,1′-biphenyl]-4-yl)sulfonyl]-2-[(2-pyridinylsulfanyl)methyl]propanoic acid], the results for the Ki in assay [1] (setting [3]) and in assay [2] (setting [4]) were 3.9 nM and 6290 nM, respectively.

Take `CN1C(=O)N(CC(CS(=O)(=O)c2ccc(-c3ccc(Cl)cc3)cc2)C(=O)O)C(=O)C1(C)C` (single isomer, unassigned) [6, Isomer 1]: the Ki in assay [1] (setting [3]) is 3.7 nM; in assay [2] (setting [4]), 3600 nM.

In the case of `CC1(C)NC(=O)N(CC(CS(=O)(=O)c2ccc(-c3ccc(Cl)cc3)cc2)C(=O)NO)C1=O` (stereo not drawn) [Example 10, 3-[(4′-chloro[1,1′-biphenyl]-4-yl)sulfonyl]-N-hydroxy-2-[(4,4-dimethyl-2,5-dioxo-1-imidazolidinyl)methyl]propanamide], the values for the Ki in assay [1] (setting [5]) and in assay [2] (setting [6]) were 0.05 nM and 12.6 nM, respectively.

As for `Cn1ccnc1SCC(CS(=O)(=O)c1ccc(-c2ccc(Cl)cc2)cc1)C(=O)O` (stereo not drawn) [Example 25, 3-[(4′-chloro[1,1′-biphenyl]-4-yl)sulfonyl]-2-[[(1-methyl-1H-imidazol-2-yl)sulfanyl]methyl]propanoic acid], the Ki in assay [1] (setting [3]) worked out at 16 nM.

With `O=C(O)C(CSc1ccccc1)CS(=O)(=O)c1ccc(-c2ccc(Cl)cc2)cc1` (single isomer, unassigned) [3, Isomer 1], the Ki in assay [1] (setting [3]) worked out at 6 nM.

Turning to `O=C(Nc1ccc(S(=O)(=O)CC(COc2ccccc2)C(=O)O)cc1)c1ccc(Cl)cc1` (stereo not drawn) [Example 34, 3-[[4-[(4-chlorobenzoyl)amino]phenyl]sulfonyl]-2-(phenoxymethyl)propanoic acid], the inhibition constant Ki is 2.4 nM in assay [1] (setting [3]) and 54000 nM in assay [2] (setting [4]).

Take `CCCCN1CC(=O)N(CC(CS(=O)(=O)c2ccc(-c3ccc(Cl)cc3)cc2)C(=O)O)C1=O` (stereo not drawn) [Example 13]: the inhibition constant (Ki) in assay [1] (setting [3]) was found to be 12 nM; in assay [2] (setting [4]) it was 5290 nM.

In the case of `O=C(O)C(CSc1ccccc1)CS(=O)(=O)c1ccc(-c2ccc(Cl)cc2)cc1` (single isomer, unassigned) [3, Isomer 2], the Ki in assay [1] (setting [3]) amounted to 660 nM.

As for `O=C(NO)C(CSc1ccccc1)CS(=O)(=O)c1ccc(-c2ccc(Cl)cc2)cc1` (stereo not drawn) [Example 4, 3-[(4′-chloro[1,1′-biphenyl]-4-yl)sulfonyl]-N-hydroxy-2-[(phenylsulfanyl)methyl]propanamide], the inhibitory constant (Ki) in assay [1] (setting [5]) is 0.159 nM; in assay [2] (setting [6]), 149 nM.

Regarding `O=C(O)C(CSc1ccc(O)cc1)CS(=O)(=O)c1ccc(-c2ccc(Cl)cc2)cc1` (stereo not drawn) [Example 16, 3-[(4′-chloro[1,1′-biphenyl]-4-yl)sulfonyl]-2-[[(4-hydroxyphenyl)sulfanyl]methyl]propanoic acid], the figures for the Ki in assay [1] (setting [3]) and in assay [2] (setting [4]) were 9 nM and 9700 nM, respectively.

For `O=C(Nc1ccc(S(=O)(=O)CC(CSc2ccccc2)C(=O)O)cc1)c1ccccc1` (stereo not drawn) [Example 15, 3-[[4-(Benzoylamino)phenyl]sulfonyl]-2-[(phenylsulfanyl)methyl]propanoic acid], the Ki was determined as 7 nM in assay [1] (setting [3]) and 81100 nM in assay [2] (setting [4]).
